Test results from patent US6737383B1, “Herbicidal oxadiazolidines” (priority 1999, dated 2004).

What was measured:
sugar beet = assay: Test B pre/postemergence sugar beet; format: in vivo, Beta vulgaris; settings: for Sugarbeets plant response rating: scale of 0 to 10 where 0 is no effect and 10 is complete control
How it was run: (§1)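 Response is a visual 0-to-10 score relative to untreated plants, where 0 means no effect and 10 means complete control, taken twelve to sixteen days after application. Treatments went onto soil at planting and onto foliage of 1- to 4-leaf plants, using a surfactant-containing non-phytotoxic solvent.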

corn = assay: Test B pre/postemergence corn; format: in vivo, Zea mays; settings: for Corn plant response rating: scale of 0 to 10 where 0 is no effect and 10 is complete control
How it was run: as §1

rape = assay: Test B pre/postemergence rape; format: in vivo, Brassica napus; settings: for Rape plant response rating: scale of 0 to 10 where 0 is no effect and 10 is complete control
How it was run: as §1

cocklebur = assay: Test B pre/postemergence cocklebur; format: in vivo, Xanthium strumarium; settings: for Cocklebur plant response rating: scale of 0 to 10 where 0 is no effect and 10 is complete control
How it was run: as §1

giant foxtail = assay: Test B pre/postemergence giant foxtail; format: in vivo, Setaria faberii; settings: for Giant foxtail plant response rating: scale of 0 to 10 where 0 is no effect and 10 is complete control
How it was run: as §1

crabgrass = assay: Test B pre/postemergence crabgrass; format: in vivo, Digitaria sanguinalis; settings: for Crabgrass plant response rating: scale of 0 to 10 where 0 is no effect and 10 is complete control
How it was run: as §1

bedstraw = assay: Test B pre/postemergence bedstraw; format: in vivo, Galium aparine
How it was run: as §1

pigweed = assay: Test B pre/postemergence pigweed; format: in vivo, Amaranthus retroflexus; settings: for Redroot pigweed plant response rating: scale of 0 to 10 where 0 is no effect and 10 is complete control
How it was run: as §1

wheat = assay: Test B pre/postemergence wheat; format: in vivo, Triticum aestivum; settings: for Wheat plant response rating: scale of 0 to 10 where 0 is no effect and 10 is complete control
How it was run: as §1

morningglory = assay: Test B pre/postemergence morningglory; format: in vivo, Ipomoea hederacea; settings: for Morningglory plant response rating: scale of 0 to 10 where 0 is no effect and 10 is complete control
How it was run: as §1

bamyardgrass = assay: Test B flood test barnyardgrass; format: in vivo, Echinochloa crus-galli
How it was run: (§2)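 Flood test on plants grown to the 2-leaf stage; treated plants kept in greenhouse twelve to sixteen days, then visually rated against controls on a 0 (no effect) to 10 (complete control) scale.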

surinam grass = assay: Test B pre/postemergence surinam grass; format: in vivo, Brachiaria decumbens
How it was run: as §1

smallflower flatsedge = assay: Test B flood test smallflower flatsedge; format: in vivo, Cyperus difformis
How it was run: as §2

rice = assay: Test B flood test rice; format: in vivo, Oryza sativa
How it was run: as §2

purple nutsedge = assay: Test B pre/postemergence purple nutsedge; format: in vivo, Cyperus rotundus; settings: for Nutsedge plant response rating: scale of 0 to 10 where 0 is no effect and 10 is complete control
How it was run: as §1

duck salad = assay: Test B flood test duck salad; format: in vivo, Heteranthera limosa
How it was run: as §2

blackgrass = assay: Test B pre/postemergence blackgrass; format: in vivo, Alopecurus myosuroides
How it was run: as §1

soybean = assay: Test B pre/postemergence soybean; format: in vivo, Glycine max; settings: for Soybean plant response rating: scale of 0 to 10 where 0 is no effect and 10 is complete control
How it was run: as §1

wild oat = assay: Test B pre/postemergence wild oat; format: in vivo, Avena fatua; settings: for Wild oats plant response rating: scale of 0 to 10 where 0 is no effect and 10 is complete control
How it was run: as §1

velvetleaf = assay: Test B pre/postemergence velvetleaf; format: in vivo, Abutilon theophrasti; settings: for Velvetleaf plant response rating: scale of 0 to 10 where 0 is no effect and 10 is complete control
How it was run: as §1

[1] = Postemergence, Rate 125 g/ha, scale 0 to 10, 0 is no effect, 10 is complete control
[2] = Preemergence, Rate 62 g/ha, scale 0 to 10 (0 no effect, 10 complete control)
[3] = Rate 500 g/ha, Postemergence, scale 0 to 10, 0 no effect, 10 complete control
[4] = Preemergence, Rate 500 g/ha, scale of 0 to 10 where 0 is no effect and 10 is complete control
[5] = Rate 62 g/ha, Postemergence, scale of 0 to 10 where 0 is no effect and 10 is complete control
[6] = Rate 250 g/ha, Postemergence, scale of 0 to 10 where 0 is no effect and 10 is complete control
[7] = Postemergence (flood test), Rate 125 g/ha, scale 0 to 10, 0 is no effect, 10 is complete control
[8] = Rate 500 g/ha, listed under Postemergence (flood test species), scale 0 to 10, 0 no effect, 10 complete control
[9] = Preemergence, Rate 250 g/ha, scale of 0 to 10 where 0 is no effect and 10 is complete control

CC(C)C(C)n1c(=O)on(C(=O)N(c2ccc(F)cc2F)C(C)C)c1=O (centres unmarked) [Compound 356]
Plant response rating, Sugarbeets (sugar beet; [1]): 0 | Plant response rating, Sugarbeets (sugar beet; [2]): 0 | Sugarbeets plant response rating (0 to 10 scale) (sugar beet; Preemergence, Rate 125 g/ha): 0 | Sugarbeets plant response rating (sugar beet; Preemergence, Rate 250 g/ha): 2 | Sugarbeets plant response rating (sugar beet; Preemergence, Rate 500 g/ha): 5 | Sugarbeets plant response rating (sugar beet; Rate 62 g/ha, Postemergence): 0 | Plant response rating, Sugarbeets (sugar beet; [3]): 0 | Plant response rating, Corn (corn; [1]): 0 | Plant response rating, Corn (corn; [2]): 0 | Corn plant response rating (0 to 10 scale) (corn; Preemergence, Rate 125 g/ha): 0 | Corn plant response rating (corn; Preemergence, Rate 250 g/ha): 2 | Corn plant response rating (corn; Preemergence, Rate 500 g/ha): 6 | Corn plant response rating (corn; Rate 62 g/ha, Postemergence): 0 | Plant response rating, Corn (corn; [3]): 3 | Plant response rating, Rape (rape; [1]): 0 | Plant response rating, Rape (rape; [2]): 0 | Rape plant response rating (0 to 10 scale) (rape; Preemergence, Rate 125 g/ha): 2 | Rape plant response rating (rape; Preemergence, Rate 250 g/ha): 4 | Rape plant response rating (rape; Preemergence, Rate 500 g/ha): 5 | Rape plant response rating (rape; Rate 62 g/ha, Postemergence): 0 | Plant response rating, Rape (rape; [3]): 0 | Plant response rating, Cocklebur (cocklebur; [1]): 0 | Cocklebur plant response rating (0 to 10 scale) (cocklebur; Preemergence, Rate 125 g/ha): 0 | Cocklebur plant response rating (cocklebur; Preemergence, Rate 250 g/ha): 0 | Cocklebur plant response rating (cocklebur; Preemergence, Rate 500 g/ha): 0 | Cocklebur plant response rating (cocklebur; Rate 62 g/ha, Postemergence): 0 | Plant response rating, Cocklebur (cocklebur; [3]): 0 | Plant response rating, Giant foxtail (giant foxtail; [1]): 4 | Plant response rating, Giant foxtail (giant foxtail; [2]): 10 | Giant foxtail plant response rating (0 to 10 scale) (giant foxtail; Preemergence, Rate 125 g/ha): 10 | Giant foxtail plant response rating (giant foxtail; Preemergence, Rate 250 g/ha): 10 | Giant foxtail plant response rating (giant foxtail; Preemergence, Rate 500 g/ha): 10 | Giant foxtail plant response rating (giant foxtail; Rate 62 g/ha, Postemergence): 2 | Plant response rating, Giant foxtail (giant foxtail; [3]): 8 | Plant response rating, Crabgrass (crabgrass; [1]): 0 | Plant response rating, Crabgrass (crabgrass; [2]): 7 | Crabgrass plant response rating (0 to 10 scale) (crabgrass; Preemergence, Rate 125 g/ha): 8 | Crabgrass plant response rating (crabgrass; Preemergence, Rate 250 g/ha): 9 | Crabgrass plant response rating (crabgrass; Preemergence, Rate 500 g/ha): 10 | Crabgrass plant response rating (crabgrass; Rate 62 g/ha, Postemergence): 0 | Plant response rating, Crabgrass (crabgrass; [3]): 3 | Plant response rating, Bedstraw (bedstraw; [1]): 0 | Plant response rating, Bedstraw (bedstraw; [2]): 0 | Bedstraw plant response rating (0 to 10 scale) (bedstraw; Preemergence, Rate 125 g/ha): 0 | Bedstraw plant response rating (bedstraw; [4]): 9 | Bedstraw plant response rating (bedstraw; [5]): 0 | Plant response rating, Bedstraw (bedstraw; [6]): 3 | Plant response rating, Bedstraw (bedstraw; [3]): 3 | Plant response rating, Redroot pigweed (pigweed; [1]): 0 | Plant response rating, Redroot pigweed (pigweed; [2]): 0 | Redroot pigweed plant response rating (0 to 10 scale) (pigweed; Preemergence, Rate 125 g/ha): 4 | Redroot pigweed plant response rating (pigweed; Preemergence, Rate 250 g/ha): 8 | Redroot pigweed plant response rating (pigweed; Preemergence, Rate 500 g/ha): 10 | Redroot pigweed plant response rating (pigweed; Rate 62 g/ha, Postemergence): 0 | Plant response rating, Redroot pigweed (pigweed; [3]): 0 | Plant response rating, Wheat (wheat; [1]): 3 | Plant response rating, Wheat (wheat; [2]): 0 | Wheat plant response rating (0 to 10 scale) (wheat; Preemergence, Rate 125 g/ha): 0 | Wheat plant response rating (wheat; Preemergence, Rate 250 g/ha): 0 | Wheat plant response rating (wheat; Preemergence, Rate 500 g/ha): 6 | Wheat plant response rating (wheat; Rate 62 g/ha, Postemergence): 2 | Plant response rating, Wheat (wheat; [3]): 4 | Plant response rating, Morningglory (morningglory; [1]): 6 | Plant response rating, Morningglory (morningglory; [2]): 0 | Morningglory plant response rating (0 to 10 scale) (morningglory; Preemergence, Rate 125 g/ha): 0 | Morningglory plant response rating (morningglory; Preemergence, Rate 250 g/ha): 0 | Morningglory plant response rating (morningglory; Preemergence, Rate 500 g/ha): 0 | Morningglory plant response rating (morningglory; Rate 62 g/ha, Postemergence): 4 | Plant response rating, Morningglory (morningglory; [3]): 10 | Plant response rating, Barnyardgrass (bamyardgrass; [7]): 0 | Plant response rating, Barnyardgrass (bamyardgrass; Rate 250 g/ha, Postemergence (flood test species), scale of 0 to 10 where 0 is no effect and 10 is complete control): 7 | Plant response rating, Barnyardgrass (bamyardgrass; [8]): 7 | Plant response rating, B. signalgrass (surinam grass; [1]): 0 | Plant response rating, B. signalgrass (surinam grass; [2]): 0 | B. signalgrass plant response rating (0 to 10 scale, 0 is no effect, 10 is complete control) (surinam grass; Preemergence, Rate 125 g/ha): 3 | B. signalgrass plant response rating (surinam grass; [9]): 5 | B. signalgrass plant response rating (surinam grass; [4]): 5 | B. signalgrass plant response rating (surinam grass; [5]): 0 | Plant response rating, B. signalgrass (surinam grass; [6]): 1 | Plant response rating, B. signalgrass (surinam grass; [3]): 1 | Plant response rating, S. Flatsedge (smallflower flatsedge; [7]): 4 | Plant response rating, S. Flatsedge (smallflower flatsedge; [8]): 7 | Plant response rating, Rice (rice; [7]): 0 | Rice plant response rating (rice; Rate 62 g/ha, Postemergence (flood test species), scale of 0 to 10 where 0 is no effect and 10 is complete control): 0 | Plant response rating, Rice (rice; [8]): 0 | Plant response rating, Nutsedge (purple nutsedge; [1]): 0 | Plant response rating, Nutsedge (purple nutsedge; [2]): 0 | Nutsedge plant response rating (0 to 10 scale) (purple nutsedge; Preemergence, Rate 125 g/ha): 0 | Nutsedge plant response rating (purple nutsedge; Preemergence, Rate 250 g/ha): 0 | Nutsedge plant response rating (purple nutsedge; Preemergence, Rate 500 g/ha): 0 | Nutsedge plant response rating (purple nutsedge; Rate 62 g/ha, Postemergence): 0 | Plant response rating, Nutsedge (purple nutsedge; [3]): 0 | Plant response rating, Ducksalad (duck salad; [7]): 0 | Plant response rating, Ducksalad (duck salad; [8]): 2 | Plant response rating, Blackgrass (blackgrass; [1]): 6 | Plant response rating, Blackgrass (blackgrass; [2]): 5 | Blackgrass plant response rating (0 to 10 scale) (blackgrass; Preemergence, Rate 125 g/ha): 6 | Blackgrass plant response rating (blackgrass; [9]): 9 | Blackgrass plant response rating (blackgrass; [4]): 9 | Blackgrass plant response rating (blackgrass; [5]): 3 | Plant response rating, Blackgrass (blackgrass; [6]): 6 | Plant response rating, Blackgrass (blackgrass; [3]): 7 | Plant response rating, Soybean (soybean; [1]): 3 | Plant response rating, Soybean (soybean; [2]): 0 | Soybean plant response rating (0 to 10 scale) (soybean; Preemergence, Rate 125 g/ha): 0 | Soybean plant response rating (soybean; Preemergence, Rate 250 g/ha): 0 | Soybean plant response rating (soybean; Preemergence, Rate 500 g/ha): 0 | Soybean plant response rating (soybean; Rate 62 g/ha, Postemergence): 2 | Plant response rating, Soybean (soybean; [3]): 5 | Plant response rating, Wild oats (wild oat; [1]): 3 | Plant response rating, Wild oats (wild oat; [2]): 5 | Wild oats plant response rating (0 to 10 scale) (wild oat; Preemergence, Rate 125 g/ha): 7 | Wild oats plant response rating (wild oat; Preemergence, Rate 250 g/ha): 10 | Wild oats plant response rating (wild oat; Rate 62 g/ha, Postemergence): 2 | Plant response rating, Wild oats (wild oat; [3]): 3 | Plant response rating, Velvetleaf (velvetleaf; [1]): 0 | Plant response rating, Velvetleaf (velvetleaf; [2]): 1 | Velvetleaf plant response rating (0 to 10 scale) (velvetleaf; Preemergence, Rate 125 g/ha): 2 | Velvetleaf plant response rating (velvetleaf; Preemergence, Rate 250 g/ha): 3 | Velvetleaf plant response rating (velvetleaf; Preemergence, Rate 500 g/ha): 5 | Velvetleaf plant response rating (velvetleaf; Rate 62 g/ha, Postemergence): 0 | Plant response rating, Velvetleaf (velvetleaf; [3]): 0
